pKi: −log10 of the molar value. Where a name gives a salt, the structure may show the parent alone.
What was measured:
human 5-HT3 receptor [1] = target: T1, human 5-HT3 receptor (Homo sapiens, UniProt P46098); test: Compound affinity for the human 5-HT3 receptor (Assay D), [3H]BRL 43694 radioligand binding, Cerep; parameters: host or cells: CHO cells
T1 sequence (P46098 24-478): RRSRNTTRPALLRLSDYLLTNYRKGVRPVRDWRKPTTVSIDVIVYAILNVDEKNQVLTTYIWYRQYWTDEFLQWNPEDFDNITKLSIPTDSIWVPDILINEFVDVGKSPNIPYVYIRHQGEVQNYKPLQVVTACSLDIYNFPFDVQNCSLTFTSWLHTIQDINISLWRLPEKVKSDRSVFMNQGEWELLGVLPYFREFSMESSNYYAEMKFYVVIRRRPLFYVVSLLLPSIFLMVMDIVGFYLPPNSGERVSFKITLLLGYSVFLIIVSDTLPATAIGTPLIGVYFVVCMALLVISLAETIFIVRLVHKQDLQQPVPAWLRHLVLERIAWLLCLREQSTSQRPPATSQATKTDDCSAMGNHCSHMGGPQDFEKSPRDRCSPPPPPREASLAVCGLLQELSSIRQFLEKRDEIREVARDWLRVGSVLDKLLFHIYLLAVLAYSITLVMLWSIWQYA
Method: Compound Affinity for the Human 5-HT3Receptor (Assay D)
Compounds were tested by Cerep, Le Bois l'Evêque—B.P. 1-86600 Celle, L'Evescault, France in a radioligand binding assay using the human recombinant 5-HT3 receptor (CHO cells, Hope, A. G., Peters, J. A., Brown, A. M., Lambert, J. J. and Blackburn, T. P. Brit. J. Pharmacol., 1996, 118: 1237-1245) and [^3H]BRL 43694 (ligand) with a […] at 22° C. For the above studies, the non-specific binding determinant was MDL 72222 (10 μM). The IC50 values (concentration causing a half-maximal inhibition of control specific binding) and Hill coefficients were determined by non-linear regression analysis of the competition curves using Hill equation curve fitting. The inhibition constants (Ki) were calculated from the Cheng Prusoff equation (Ki=IC50/(1+(L/KD)), where L=concentration of radioligand in the assay, and KD=affinity of the radioligand for the receptor).
(§1) In the table below, the assay in which the data were obtained is shown (as A, B. C, or D) along with the data.

mouse 5-HT3 receptor = target: T2, mouse 5-HT3 receptor (Mus musculus, UniProt P23979); test: Compound affinity for the mouse 5-HT3 receptor (Assay C), [3H]-GR65630 radioligand binding, Novoscreen; details: Assay C; single concentration 100 nM, in duplicate; [3H]-GR65630; read-out: Mouse % Inhibition @ 100 nM
T2 construct: host or cells: mouse neuroblastoma cells (N1E-155 as printed)
T2 sequence (P23979 24-489): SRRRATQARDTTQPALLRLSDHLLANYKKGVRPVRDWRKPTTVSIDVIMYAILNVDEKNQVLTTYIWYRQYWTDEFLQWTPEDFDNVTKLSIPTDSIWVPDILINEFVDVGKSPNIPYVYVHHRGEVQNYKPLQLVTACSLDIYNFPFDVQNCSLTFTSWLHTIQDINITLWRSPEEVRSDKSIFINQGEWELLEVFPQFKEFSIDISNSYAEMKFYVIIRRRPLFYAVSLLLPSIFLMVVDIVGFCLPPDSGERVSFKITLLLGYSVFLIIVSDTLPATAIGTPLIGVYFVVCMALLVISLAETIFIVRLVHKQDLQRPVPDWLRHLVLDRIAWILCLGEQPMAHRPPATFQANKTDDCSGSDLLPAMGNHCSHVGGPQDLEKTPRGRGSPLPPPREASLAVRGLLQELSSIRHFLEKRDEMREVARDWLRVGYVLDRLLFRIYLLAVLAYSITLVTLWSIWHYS
Method: Compound Affinity for the Mouse 5-HT3Receptor (Assay C)
(§2) Compounds were tested by Novoscreen Biosciences Corporation, 7170 Standard Drive, Hanover, Md. in a radioligand binding assay using the mouse 5-HT3 receptor derived from mouse neuroblastoma cells and [^3H]-GR65630 (ligand). The non-specific binding determinant was MDL 72222. Compounds were tested at a single concentration of 100 nM in duplicate. Percent inhibition is reported. In order to evaluate the relative affinity of the various compounds for the 5-HT3 receptor, N1E-155 cell lines were developed to express the target protein. For binding, these cells were homogenized, centrifuged and washed with buffer (20 mM HEPES, 150 mM NaCl, pH 7.4) then suspended in 0.5 mL of buffer and [^3H]-GR65630 added at a concentration of 3.5×10^−10 M. An initial single concentration of 10^−7 M of the test compound was then added. Incubation was carried out at room temperature for 60 minutes at 25° C. then was terminated by rapid removal of the incubation medium. Radioactivity was assessed using liquid scintillation spectrophotometry after exposure to scintillation cocktail for at least three hours. […] Ki values were then calculated from the Cheng-Prusoff equation. In all of the above binding studies the non-specific determinant was MDL-72222 (1.0 μM).
as §1

human 5-HT3 receptor [2] = target: T1, human 5-HT3 receptor; test: Compound affinity for the human 5-HT3 receptor (Assay A), [3H]-GR65630 radioligand binding, MDS Pharma; parameters: host or cells: N1E-155 cell lines (so in the source)
Method: Compound Affinity for the Human 5-HT3 Receptor (Assay A)
as §2, with “tested by MDS Pharma Services—Taiwan Ltd., 158 Li—The Road, Peitou, Taipei, Taiwan 112 R.O.C. In order” for “tested by Novoscreen Biosciences Corporation, 7170 Standard Drive, Hanover, Md. in a radioligand binding assay using the mouse 5-HT3 receptor derived from mouse neuroblastoma cells and [^3H]-GR65630 (ligand). The non-specific binding determinant was MDL 72222. Compounds were tested at a single concentration of 100 nM in duplicate. Percent inhibition is reported. In order”, “for the human 5-HT3 receptor,” for “for the 5-HT3 receptor,”
as §1

[3] = Assay D, recombinant receptor in CHO cells, [3H]BRL 43694, Cheng-Prusoff, read-out: Human 5HT3 Ki
[4] = Assay A, [3H]-GR65630, Cheng-Prusoff, read-out: Human 5HT3 Ki

Compound | inhibition at 0.1 µM (mouse 5-HT3 receptor) [%] | pKi (human 5-HT3 receptor [1]) | other results
O=C(N[C@@H]1CN2CCC1CC2)c1cccc2oc(Cc3ccccc3)nc12 [Example 10, (S)—N-(1-Azabicyclo[2.2.2]oct-3-yl)-2-benzylbenzoxazole-4-carboxamide Hydrochloride] | – | – | pKi (human 5-HT3 receptor [1]; [3]): 7.68
CN1[C@@H]2CCC[C@H]1C[C@@H](NC(=O)c1cccc3oc(C(C)(C)C)nc13)C2 [Example 3, Endo-N-(9-Methyl-9-azabicyclo[3.3.1]non-3-yl)-2-tert-butylbenzoxazole-4-carboxamide] | 104 | 8.33 | –
CC1(c2nc3c(C(=O)N[C@@H]4CN5CCC4CC5)cccc3o2)CC1 [Example 8, (S)—N-(1-Azabicyclo[2.2.2]oct-3-yl)-2-(1-methylcyclopropyl)benzoxazole-4-carboxamide Hydrochloride] | 97.6 | 7.72 | –
CN1[C@@H]2CCC[C@H]1C[C@@H](NC(=O)c1cccc3oc(C4CCC4)nc13)C2 [Example 17, Endo-N-(9-Methyl-9-azabicyclo[3.3.1]non-3-yl)-2-cyclobutylbenzoxazole-4-carboxamide Hydrochloride] | 108 | 8.15 | –
CN1[C@@H]2CCC[C@H]1C[C@@H](NC(=O)c1cc(F)cc3oc(C4CC4)nc13)C2 [Example 20, Endo-N-(9-Methyl-9-azabicyclo[3.3.1]non-3-yl)-6-fluoro-2-cyclopropylbenzoxazole-4-carboxamide Hydrochloride] | – | – | pKi (human 5-HT3 receptor [1]; [3]): 8.27
CC(C)(C)c1nc2c(C(=O)N[C@@H]3CN4CCC3CC4)cccc2o1 [Example 4, (S)—N-(1-Azabicyclo[2.2.2]oct-3-yl)-2-tert-butylbenzoxazole-4-carboxamide] | 94.3 | 7.52 | –
CN1[C@@H]2CCC[C@H]1C[C@@H](NC(=O)c1cccc3oc(CC4CC4)nc13)C2 [Example 11, Endo-N-(9-Methyl-9-azabicyclo[3.3.1]non-3-yl)-2-(cyclopropylmethyl)benzoxazole-4-carboxamide Hydrochloride] | 98.6 | 8.07 | –
Cc1nc2c(C(=O)N[C@@H]3CN4CCC3CC4)cccc2o1 [Example 35, (S)—N-(1-Azabicyclo[2.2.2]oct-3-yl)-2-methylbenzoxazole-4-carboxamide] | 83 | 7.92 | –
CC1CC1c1nc2c(C(=O)NC3CC4CCCC(C3)N4C)cccc2o1 (stereo not drawn) [Example 13, Endo-N-(9-Methyl-9-azabicyclo[3.3.1]non-3-yl)-2-(2-methylcyclopropyl)benzoxazole-4-carboxamide Hydrochloride] | 88.1 | – | pKi (human 5-HT3 receptor [2]): 8.24
CN1[C@@H]2CCC[C@H]1C[C@@H](NC(=O)c1cccc3oc(C4CCOCC4)nc13)C2 [Example 24, Endo-N-(9-methyl-9-azabicyclo[3.3.1]non-3-yl)-2-(tetrahydro-2H-pyran-4-yl)benzoxazole-4-carboxamide Hydrochloride] | – | – | pKi (human 5-HT3 receptor [2]; [4]): 7.75
CN1[C@@H]2CCC[C@H]1C[C@@H](NC(=O)c1cccc3oc(Cc4ccccc4)nc13)C2 [Example 9, Endo-N-(9-Methyl-9-azabicyclo[3.3.1]non-3-yl)-2-benzylbenzoxazole-4-carboxamide Hydrochloride] | 94.7 | 7.96 | –
CC(=O)N1CCC(c2nc3c(C(=O)N[C@H]4C[C@H]5CCC[C@@H](C4)N5C)cccc3o2)CC1 [Example 23, Endo-N-(9-methyl-9-azabicyclo[3.3.1]non-3-yl)-2-(1-acetylpiperidin-4-yl)benzoxazole-4-carboxamide Hydrochloride] | – | – | pKi (human 5-HT3 receptor [2]; [4]): 7.44
CN1[C@@H]2CCC[C@H]1C[C@@H](NC(=O)c1cccc3oc(C4(C)CC4)nc13)C2 [Example 7, Endo-N-(9-Methyl-9-azabicyclo[3.3.1]non-3-yl)-2-(1-methylcyclopropyl)benzoxazole-4-carboxamide Hydrochloride] | 96.7 | 8.48 | –
O=C(N[C@@H]1CN2CCC1CC2)c1cccc2ocnc12 [Example 22, (S)—N-(1-Azabicyclo[2.2.2]oct-3-yl)-benzoxazole-4-carboxamide Hydrochloride] | – | – | pKi (human 5-HT3 receptor [2]; [4]): 7.78
CN1[C@@H]2CCC[C@H]1C[C@@H](NC(=O)c1cccc3oc(C4CCCC4)nc13)C2 [Example 5, Endo-N-(9-Methyl-9-azabicyclo[3.3.1]non-3-yl)-2-cyclopentylbenzoxazole-4-carboxamide Hydrochloride] | 96.2 | – | pKi (human 5-HT3 receptor [2]): 8.64
O=C(N[C@@H]1CN2CCC1CC2)c1cccc2oc(C3CCC3)nc12 [Example 18, (S)—N-(1-Azabicyclo[2.2.2]oct-3-yl)-2-cyclobutylbenzoxazole-4-carboxamide Hydrochloride] | 108 | 8.15 | –
Cc1nc2c(C(=O)N[C@H]3C[C@H]4CCC[C@@H](C3)N4C)cccc2o1 [Example 34, Endo-N-(9-Methyl-9-azabicyclo[3.3.1]non-3-yl)-2-methylbenzoxazole-4-carboxamide] | 79 | 8.26 | –
O=C(N[C@@H]1CN2CCC1CC2)c1cccc2oc(CC3CC3)nc12 [Example 12, (S)—N-(1-Azabicyclo[2.2.2]oct-3-yl)-2-(cyclopropylmethyl)benzoxazole-4-carboxamide Hydrochloride] | 90.6 | 7.59 | –
O=C(N[C@@H]1CN2CCC1CC2)c1cc(F)cc2oc(C3CC3)nc12 [Example 19, (S)—N-(1-Azabicyclo[2.2.2]oct-3-yl)-6-fluoro-2-cyclopropylbenzoxazole-4-carboxamide Hydrochloride] | – | – | pKi (human 5-HT3 receptor [1]; [3]): 7.36

— patent US8278301B2, “2-alkylbenzoxazole carboxamides as 5HT3 modulators” (Albany Molecular Research, Inc., priority 2006, dated 2012)
